How the values were obtained:
[1] = tested on: T. cruzi INC-5 epimastigotes; experiment: Viability (MTT) assay on T. cruzi epimastigotes; assay type: cell-based, Trypanosoma cruzi; conditions: Trypanosoma cruzi, 24 h, mean and SD of triplicate
Procedure: In this study, two strains of T. cruzi isolated in Mexico were used. […] Epimastigotes were cultured in vitro in liver infusion-tryptose (LIT) medium supplemented with 10% heat inactivated fetal bovine serum (FBS) (Gibco) and 100 U/mL penicillin-streptomycin (In vitro S.A.), and incubated at 27 °C. CD1 mice, aged 6–8 weeks, were infected with T. cruzi to obtain bloodstream trypomastigote samples.
Viability assays of T. cruzi epimastigotes using 3-(4,5-dimethylthiazol-2-yl)-2,5-diphenyltetrazolium bromide (MTT) were performed. Briefly, the parasites were harvested during the exponential growth phase for a period of five days. In a 96-well microplate 1x10^6 epimastigotes were deposited in brain-heart infusion (BHI) medium supplemented with 10% FBS and 100 U/mL antibiotic-antifungal mixture (Gibco). […] Each well reached a final volume of 100 µL. Each condition was assessed in triplicate. The microplate was incubated for 24 h at 27 °C in darkness. Afterwards, 10 μL of a 5 mg/mL MTT solution was added and the plate was incubated for 20 h at 27 °C. Then 200 μL of 10% dodecyl sulfate (SDS)/0.1% HCl solution was added to dissolve formazan salts; the plate was incubated an additional 4 h. Finally, the plate was read at 570 nm in a spectrophotometer (Multiskan EX Thermo Electron, Taipei, Taiwan). The amount of viable cells was proportional to the amount of formazan produced. […] Later the results were converted to micromolar units. […] As a […] control, parasites were incubated only in culture medium with a 1% DMSO concentration, corresponding to the highest sample dilution of DMSO [34, 35, 36].

[2] = tested on: T. cruzi bloodstream trypomastigotes NINOA strain; experiment: microbe, parasite or virus in culture; assay type: cell-based; conditions: Trypanosoma cruzi; for killing at 50 µg/mL: 50 μg/mL, 24 h at 4 °C, infected mouse blood, read-out: % Lysis at 50 μg/mL NINOA Strain; for LC50: 24 h
Procedure: (§1) In this study, two strains of T. cruzi isolated in Mexico were used. T. cruzi NINOA strain (MHOM/MX/1994/NINOA) was obtained from a patient with acute Chagas disease and T. cruzi INC-5 (MHOM/MX/1994/INC5) was isolated from a patient in the chronic phase of the disease. Epimastigotes were cultured in vitro in liver infusion-tryptose (LIT) medium supplemented with 10% heat inactivated fetal bovine serum (FBS) (Gibco) and 100 U/mL penicillin-streptomycin (In vitro S.A.), and incubated at 27 °C. CD1 mice, aged 6–8 weeks, were infected with T. cruzi to obtain bloodstream trypomastigote samples. Animal experiments were performed according to Norma Oficial Mexicana (NOM-062-Z00-1999) published on 22 August, 2009.
(§2) CD1 female mice 6–8 weeks old were infected with T. cruzi bloodstream trypomastigotes of the INC-5 and NINOA strains. The course of infection continued for 4–6 weeks. At the peak of parasitemia blood was obtained by cardiac puncture using sodium heparin as an anticoagulant. The blood was adjusted to 1 × 10^6 bloodstream trypomastigotes/mL.
(§3) In each well of the 96-well plate, 195 μL of infected blood and 5 μL of quinoxaline 1,4-di-N-oxide derivatives or reference drug dilutions were seeded, with each well reaching a final volume of 200 µL. Each assay was performed in triplicate. Initially, all compounds were tested at 50 μg/mL. […] As a negative control of lysis, wells with untreated blood trypomastigotes were used, and as a positive control, wells with the reference drugs were used. The microplates were incubated at 4 °C for 24 h. Bloodstream trypomastigotes were quantified by the method of Brener-Pizzi, 5 μL of blood were placed on a slide and covered with a coverslip 13 × 13 mm. The mobile protozoa were counted in 15 fields at 40× magnification using an optical microscope. The percentage lysis was determined by comparing the remaining trypomastigotes against the negative control. LC50 was determined with the Probit statistical tool. The results were later converted to micromolar units.

[3] = tested on: T. cruzi bloodstream trypomastigotes INC-5 strain; experiment: microbe, parasite or virus in culture; assay type: cell-based; conditions: Trypanosoma cruzi; for CC50: 24 h, bloodstream trypomastigotes, 24 h at 4 °C (called IC50 in abstract), read-out: LC50 INC-5 Strain; for killing at 50 µg/mL: 50 μg/mL, 24 h at 4 °C, infected mouse blood, read-out: % Lysis at 50 μg/mL INC-5 Strain
Procedure: as §1, §2, §3

[4] = Cytotoxicity assay (Alamar Blue) on macrophages; assay type: cell-based, murine; conditions: mouse, J774A.1 macrophages, mean and SD of triplicate
Procedure: The murine macrophage cell line J774.A1 was maintained in culture flasks with RPMI 1640 medium supplemented with 10% FBS, 1% MEM-NEAA medium (Gibco) and 100 U/mL antibiotic-antifungal mixture (Gibco). Cells were incubated at 37 °C with 5% CO2 and humidity. Trypsinized J774.A1 macrophages were washed and viability was assessed by the trypan blue dye (Sigma-Aldrich, Toluca, Edo de Mexico, Mexico) exclusion assay. In a 96-well microplate, 50,000 macrophages were seeded per well and a dose-response assay was performed. Compounds were evaluated using six-fold serial dilutions ranging from 100 µg/mL to 0.3 µg/mL of final concentration. Each compound was tested in triplicate. After 20 h incubation, Alamar Blue was added (10% v/v) and cells were incubated for an additional 4 h period. Results were obtained as previously described and CC50 was calculated. As a negative control of cytotoxicity, cells were incubated only in the presence of 0.1% DMSO [39, 40].

| IC50 [1] [µM] | Structure (SMILES) | killing at 50 µg/mL [2] [%] | CC50 [3] [µM] | killing at 50 µg/mL [3] [%] | CC50 at 24 h [4] [µM] | LC50 [2] [µM] |
| --- | --- | --- | --- | --- | --- | --- |
| 42.3 ± 5.76 | O=C(Cn1ccnc1[N+](=O)[O-])NCc1ccccc1 [Bnz, benznidazole, reference compound] | 58.1 ± 4.5 | 85.3 ± 16.7 | 53.5 ± 5.6 | 352 ± 17.1 | – |
| 43.7 ± 8.6 | COC(=O)c1c(C)[n+]([O-])c2ccc(C(=O)OC(C)C)cc2[n+]1[O-] [Compound T-064, Isopropyl methyl-3-methyl-quinoxaline-2,7-dicarboxylate 1,4-di-N-oxide] | 3.2 ± 2 | – | 1.7 ± 2 | 135 ± 11.1 | – |
| > 148 | CCOC(=O)c1c(C)[n+]([O-])c2ccc(C(=O)OC(C)C)cc2[n+]1[O-] [Compound T-065, Isopropyl ethyl-3-methylquinoxaline-2,7-dicarboxylate 1,4-di-N-oxide] | 0.77 ± 1.58 | – | 3.78 ± 5.7 | > 296 | – |
| > 137 | Cc1c(C(=O)OC(C)(C)C)[n+]([O-])c2cc(C(=O)OC(C)C)ccc2[n+]1[O-] [Compound T-066, Isopropyl tert-butyl-3-methylquinoxaline-2,7-dicarboxylate 1,4-di-N-oxide] | 2.6 ± 4.3 | – | 5.4 ± 3.7 | > 273 | – |
| 12.1 ± 0.4 | CCOC(=O)Cc1c(C(=O)OCC)[n+]([O-])c2cc(C(=O)OC(C)C)ccc2[n+]1[O-] [Compound T-067, Isopropyl ethyl-3-(2-ethoxy-2-oxoethyl) quinoxaline-2,7-dicarboxylate 1,4-di-N-oxide] | 18.5 ± 2.2 | – | 14.4 ± 9.2 | 44.4 ± 7.1 | – |
| 4.95 ± 0.5 | CC(C)OC(=O)c1ccc2c(c1)[n+]([O-])c(C(=O)c1cccs1)c(C(F)(F)F)[n+]2[O-] [Compound T-069, Isopropyl 2-(thiophene-2-carbonyl)-3-trifluoromethylquinoxaline-7-carboxylate 1,4-di-N-oxide] | 57.3 ± 2.8 | 111 ± 9.3 | 77.7 ± 9.3 | 12.8 ± 0.6 | 98 ± 6.1 |
| 2.83 ± 0.7 | CC(=O)c1c(C(F)(F)F)[n+]([O-])c2ccc(C(=O)OC(C)C)cc2[n+]1[O-] [Compound T-070, Isopropyl 2-acetyl-3-trifluoromethylquinoxaline-7-carboxylate 1,4-di-N-oxide] | 46 ± 2.7 | – | 10.8 ± 5.4 | 17.5 ± 0.7 | – |
| 4.03 ± 0.5 | CC(C)OC(=O)c1ccc2c(c1)[n+]([O-])c(C(=O)c1ccccc1)c(C(F)(F)F)[n+]2[O-] [Compound T-071, Isopropyl 2-benzoyl-3-trifluoromethylquinoxaline-7-carboxylate 1,4-di-N-oxide] | 58.8 ± 4.4 | 103 ± 8.3 | 69.2 ± 5.1 | 6.7 ± 0.8 | 97.8 ± 6.3 |
| 33.7 ± 9.2 | CC(C)OC(=O)c1ccc2c(c1)[n+]([O-])c(C(=O)c1ccco1)c(C(F)(F)F)[n+]2[O-] [Compound T-073, Isopropyl 2-(furyl-2-carbonyl)-3-trifluoromethylquinoxaline-7-carboxylate 1,4-di-N-oxide] | 35 ± 4.5 | – | 22.1 ± 4.32 | 55.4 ± 2.9 | – |
| 139 ± 13.5 | CCCOC(=O)c1ccc2c(c1)[n+]([O-])c(C(=O)OC)c(C)[n+]2[O-] [Compound T-088, n-Propil methyl-3-methylquinoxaline-2,7-dicarboxylate 1,4-di-N-oxide] | 16.3 ± 11.1 | – | 33.6 ± 6.8 | 143 ± 9.7 | – |
| 7.59 ± 1.4 | CCCOC(=O)c1ccc2c(c1)[n+]([O-])c(C(=O)c1cccs1)c(C(F)(F)F)[n+]2[O-] [Compound T-089, n-Propil 2-(thiophene-2-carbonyl)-3-trifluoromethylquinoxaline-7-carboxylate 1,4-di-N-oxide] | 51.6 ± 3.4 | 122 ± 6.5 | 42 ± 6.5 | 7.71 ± 0.7 | 115 ± 8.4 |
| 155 ± 12.3 | CCCOC(=O)c1ccc2c(c1)[n+]([O-])c(C(=O)OCC)c(C)[n+]2[O-] [Compound T-090, n-Propil ethyl-3-methylquinoxaline-2,7-dicarboxylate 1,4-di-N-oxide] | 28.6 ± 3.1 | – | 47.3 ± 3.3 | 146 ± 9.2 | – |
| > 137 | CCCOC(=O)c1ccc2c(c1)[n+]([O-])c(C(=O)OC(C)(C)C)c(C)[n+]2[O-] [Compound T-091, n-Propil tert-butyl-3-methylquinoxaline-2,7-dicarboxylate 1,4-di-N-oxide] | 7.3 ± 3.3 | – | 8.15 ± 2.2 | > 273 | – |
| > 130 | Cc1c(C(=O)Nc2ccccc2)[n+]([O-])c2cc(C(=O)OC(C)C)ccc2[n+]1[O-] [Compound T-097, Isopropyl 2-phenylamide-3-methylquinoxaline-7-carboxylate 1,4-di-N-oxide] | 12.2 ± 10.9 | – | 12.4 ± 5.2 | > 261 | – |
| 142 ± 8.3 | Cc1c(C(=O)c2ccccc2)[n+]([O-])c2cc(C(=O)OC(C)C)ccc2[n+]1[O-] [Compound T-098, Isopropyl 2-benzoyl-3-methylquinoxaline-7-carboxylate 1,4-di-N-oxide] | 6.89 ± 5.8 | – | 0.34 ± 0.6 | 140 ± 8.1 | – |
| 91.7 ± 10.5 | CC(C)OC(=O)c1ccc2c(c1)[n+]([O-])c(C(=O)C(C)(C)C)c(C(C)(C)C)[n+]2[O-] [Compound T-107, Isopropyl 2-(tert-butyl-2-carbonyl)-3-tert-butylquinoxaline-7-carboxylate 1,4-di-N-oxide] | 6.28 ± 4.7 | – | 5.32 ± 3.8 | 164 ± 7.7 | – |
| 131 ± 12.3 | Cc1c(C(N)=O)[n+]([O-])c2cc(C(=O)OC(C)C)ccc2[n+]1[O-] [Compound T-108, Isopropyl 2-amide-3-methyl-quinoxaline-7-carboxilate 1,4-di-N-óxide] | 12.8 ± 7.2 | – | 18.8 ± 2.8 | 221 ± 9.4 | – |
| 5.2 ± 2.1 | CCOC(=O)c1c(C(F)(F)F)[n+]([O-])c2ccc(C(=O)OC(C)C)cc2[n+]1[O-] [Compound T-116, Isopropyl ethyl-3-trifluoromethylquinoxaline-2,7-dicarboxylate 1,4-di-N-oxide] | 49.9 ± 4 | – | 17.6 ± 2.6 | 14.5 ± 0.8 | – |
| 72.2 ± 8 | CC(C)OC(=O)c1ccc2c(c1)[n+]([O-])c(C(=O)C(F)(F)C(F)(F)F)c(C(F)(F)F)[n+]2[O-] [Compound T-118, Isopropyl 2-pentafluorocarbonyl-3-trifluoromethylquinoxaline-7-carboxylate 1,4-di N-oxide] | 34.4 ± 3.1 | – | 0 | 157 ± 6.3 | – |

Reference: paper PMC6155662, “Trypanocidal Activity of Quinoxaline 1,4 Di-N-oxide Derivatives as Trypanothione Reductase Inhibitors” (Molecules : A Journal of Synthetic Chemistry and Natural …, 2017)
